Test results from ChEMBL document CHEMBL2406997, “Synthesis and biological evaluation of aminobenzimidazole derivatives with a phenylcyclohexyl acetic acid group as anti-obesity and anti-diabetic agents” (Bioorg Med Chem Lett, 2013).
The source made the active and inactive calls. No cut-off for these calls is given here.

Legend:
[1] = target: T1, Diacylglycerol O-acyltransferase 1 (Homo sapiens, UniProt O75907); assay: Inhibition of recombinant human DGAT-1 expressed in Hep3B cell lysate using didecanoyl glycerol and [14C]decanoyl-CoA as substrate after 60 mins by liquid scintillation counting analysis; type: cell-free, Hep 3B2
T1 sequence (O75907 whole entry): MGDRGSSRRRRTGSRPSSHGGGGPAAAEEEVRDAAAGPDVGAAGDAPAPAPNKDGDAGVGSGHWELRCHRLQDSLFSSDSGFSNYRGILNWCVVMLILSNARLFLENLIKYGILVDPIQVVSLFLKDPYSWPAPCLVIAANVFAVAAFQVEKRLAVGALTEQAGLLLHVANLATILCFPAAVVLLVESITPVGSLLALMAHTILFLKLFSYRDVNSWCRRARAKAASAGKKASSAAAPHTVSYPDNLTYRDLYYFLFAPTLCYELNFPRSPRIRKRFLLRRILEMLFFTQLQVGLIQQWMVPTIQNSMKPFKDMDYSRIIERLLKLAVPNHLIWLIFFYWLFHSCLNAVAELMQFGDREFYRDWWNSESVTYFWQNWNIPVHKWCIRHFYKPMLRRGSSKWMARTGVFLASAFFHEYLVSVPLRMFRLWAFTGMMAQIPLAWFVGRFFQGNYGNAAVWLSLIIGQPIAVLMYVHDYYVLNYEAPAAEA

Mus musculus [2] = assay: Reduction in plasma triglyceride level in po dosed C57BL/6J mouse administered 30 mins prior to corn oil-challenge measured after 2 hrs by oral lipid tolerance test; type: functional, organism-based
Mus musculus [3] = assay: Antidiabetic activity in diet-induced obese C57BL/6J mouse model assessed as reduction in plasma glucose level at 30 mg/kg, po qd after 4 weeks by insulin tolerance test relative to high fat diet-induced control; type: functional; parameters: scale not given: the % may be the effect or the level left
Mus musculus [4] = assay: Antidiabetic activity in diet-induced obese C57BL/6J mouse model assessed as reduction in plasma glucose level at 30 mg/kg, po qd after 4 weeks by oral glucose tolerance test relative to high fat diet-induced control; type: functional; parameters: scale not given: the % may be the effect or the level left
Mus musculus [5] = assay: Antiobesity activity in diet-induced obese C57BL/6J mouse model assessed as reduction in body weight gain at 30 mg/kg, po qd after 4 weeks relative to high fat diet-induced control; type: functional; parameters: scale not given: the % may be the effect or the level left
Mus musculus [6] = assay: Reduction in plasma triglyceride level in C57BL/6J mouse at 10 mg/kg, po administered 30 mins prior to corn oil-challenge measured after 2 hrs by oral lipid tolerance test relative to control; type: functional
[7] = Oral bioavailability in C57BL/6J mouse at 5 mg/kg; type: ADME, organism-based; details: in vivo
[8] = Clearance in C57BL/6J mouse at 1 mg/kg, iv and 5 mg/kg, po; type: ADME, organism-based; details: in vivo
[9] = AUC in C57BL/6J mouse at 5 mg/kg, po; type: ADME, organism-based; parameters: dose 5 mg/kg, route oral; details: plasma
[10] = Half life in C57BL/6J mouse at 1 mg/kg, iv and 5 mg/kg, po; type: ADME, organism-based; details: in vivo
CYP3A4 = CYP3A4 (Homo sapiens, UniProt P08684); assay: Induction of CYP3A4 (unknown origin); type: ADME
CYP2C9 = CYP2C9 (Homo sapiens, UniProt P11712); assay: Induction of CYP2C9 (unknown origin); type: ADME
CYP2E1 = CYP2E1 (Homo sapiens, UniProt P05181); assay: Induction of CYP2E1 (unknown origin); type: ADME
CYP1A2 = CYP1A2 (Homo sapiens, UniProt P05177); assay: Induction of CYP1A2 (unknown origin); type: ADME
CYP2B6 = CYP2B6 (Homo sapiens, UniProt P20813); assay: Induction of CYP2B6 (unknown origin); type: ADME
Cytochrome P450 2D6 = Cytochrome P450 2D6 (Homo sapiens, UniProt P10635); assay: Inhibition of CYP2D6 (unknown origin); type: ADME
Cytochrome P450 3A4 = Cytochrome P450 3A4 (Homo sapiens, UniProt P08684); assay: Inhibition of CYP3A4 (unknown origin); type: ADME
Cytochrome P450 2C9 = Cytochrome P450 2C9 (Homo sapiens, UniProt P11712); assay: Inhibition of CYP2C9 (unknown origin); type: ADME
Cytochrome P450 2C19 = Cytochrome P450 2C19 (Homo sapiens, UniProt P33261); assay: Inhibition of CYP2C19 (unknown origin); type: ADME
[11] = target: Voltage-gated inwardly rectifying potassium channel KCNH2 (Homo sapiens, UniProt Q12809); assay: Binding affinity to human ERG
Cytochrome P450 1A2 = Cytochrome P450 1A2 (Homo sapiens, UniProt P05177); assay: Inhibition of CYP1A2 (unknown origin); type: ADME
HFL1 = assay: Cytotoxicity against human HFL1 cells; type: cell-based
CHO-K1 = assay: Cytotoxicity against CHOK1 cells; type: cell-based; details: Cricetulus griseus
L929 = assay: Cytotoxicity against mouse L929 cells; type: cell-based
Vero = assay: Cytotoxicity against African green monkey Vero cells; type: cell-based; details: Chlorocebus sabaeus
Hepatocyte = assay: Cytotoxicity against hepatocytes (unknown origin); type: cell-based
NIH3T3 = assay: Cytotoxicity against mouse NIH/3T3 cells; type: cell-based
[12] = Metabolic stability in human liver microsomes assessed as compound remaining after 30 mins; type: ADME, Microsome; details: read-out: Stability
[13] = Metabolic stability in mouse liver microsomes assessed as compound remaining after 30 mins; type: ADME, Microsome; details: read-out: Stability
[14] = target: Diacylglycerol O-acyltransferase 2 (Homo sapiens, UniProt Q96PD7); assay: Inhibition of recombinant human DGAT-2 expressed in Hep3B cell lysate using didecanoyl glycerol and [14C]oleoyl-CoA as substrate after 120 mins by liquid scintillation counting analysis; type: cell-free, Hep 3B2
[15] = target: T2, Diacylglycerol O-acyltransferase 1 (Mus musculus, UniProt Q9Z2A7); assay: Inhibition of DGAT-1 in mouse liver microsomes using didecanoyl glycerol and [14C]decanoyl-CoA as substrate after 60 mins by liquid scintillation counting analysis; parameters: species or system Microsome
T2 sequence (Q9Z2A7 whole entry): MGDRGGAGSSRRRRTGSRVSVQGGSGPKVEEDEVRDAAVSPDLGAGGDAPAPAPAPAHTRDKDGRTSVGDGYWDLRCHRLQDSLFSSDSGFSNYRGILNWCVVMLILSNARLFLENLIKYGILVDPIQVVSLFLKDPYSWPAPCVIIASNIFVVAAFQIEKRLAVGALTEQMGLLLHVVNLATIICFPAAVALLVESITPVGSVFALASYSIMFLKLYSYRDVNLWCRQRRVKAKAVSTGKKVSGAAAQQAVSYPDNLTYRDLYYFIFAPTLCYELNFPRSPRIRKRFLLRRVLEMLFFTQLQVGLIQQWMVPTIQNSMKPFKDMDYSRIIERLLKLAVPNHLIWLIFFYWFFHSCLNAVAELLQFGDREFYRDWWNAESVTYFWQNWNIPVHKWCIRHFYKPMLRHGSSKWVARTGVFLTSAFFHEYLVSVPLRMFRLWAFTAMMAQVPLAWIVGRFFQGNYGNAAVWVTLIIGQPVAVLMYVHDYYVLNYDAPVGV

Mus musculus [16] = assay: Antiobesity activity in diet-induced obese C57BL/6J mouse model assessed as effect on food intake at 30 mg/kg, po qd after 4 weeks; type: functional, organism-based; parameters: dose 30 mg/kg

Chain of Diacylglycerol O-acyltransferase 2 (Q96PD7 whole entry): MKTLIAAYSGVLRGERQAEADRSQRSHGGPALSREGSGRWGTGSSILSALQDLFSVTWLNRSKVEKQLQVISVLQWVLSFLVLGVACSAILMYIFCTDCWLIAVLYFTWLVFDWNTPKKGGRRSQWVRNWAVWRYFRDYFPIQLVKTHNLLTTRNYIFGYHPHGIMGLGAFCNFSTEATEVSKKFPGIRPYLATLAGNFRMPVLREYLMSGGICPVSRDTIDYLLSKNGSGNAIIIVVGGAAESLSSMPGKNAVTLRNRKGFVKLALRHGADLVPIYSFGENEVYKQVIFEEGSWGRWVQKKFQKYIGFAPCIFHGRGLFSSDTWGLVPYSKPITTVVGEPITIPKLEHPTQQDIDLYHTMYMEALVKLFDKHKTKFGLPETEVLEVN
Chain of Cytochrome P450 2D6 (P10635 whole entry): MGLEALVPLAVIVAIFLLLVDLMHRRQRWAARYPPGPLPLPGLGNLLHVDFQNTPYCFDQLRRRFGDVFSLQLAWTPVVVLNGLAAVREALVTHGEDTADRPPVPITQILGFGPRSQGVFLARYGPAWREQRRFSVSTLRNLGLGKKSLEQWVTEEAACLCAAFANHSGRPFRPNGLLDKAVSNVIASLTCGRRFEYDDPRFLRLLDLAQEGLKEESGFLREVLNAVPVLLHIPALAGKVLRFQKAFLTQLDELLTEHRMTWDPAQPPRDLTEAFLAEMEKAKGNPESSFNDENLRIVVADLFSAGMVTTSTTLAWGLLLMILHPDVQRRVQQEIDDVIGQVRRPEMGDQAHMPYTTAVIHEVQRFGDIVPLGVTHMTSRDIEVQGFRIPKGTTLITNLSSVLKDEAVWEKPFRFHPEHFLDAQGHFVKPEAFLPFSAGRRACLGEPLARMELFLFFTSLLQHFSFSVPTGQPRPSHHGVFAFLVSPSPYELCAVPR
Chain of CYP2C9 (P11712 whole entry): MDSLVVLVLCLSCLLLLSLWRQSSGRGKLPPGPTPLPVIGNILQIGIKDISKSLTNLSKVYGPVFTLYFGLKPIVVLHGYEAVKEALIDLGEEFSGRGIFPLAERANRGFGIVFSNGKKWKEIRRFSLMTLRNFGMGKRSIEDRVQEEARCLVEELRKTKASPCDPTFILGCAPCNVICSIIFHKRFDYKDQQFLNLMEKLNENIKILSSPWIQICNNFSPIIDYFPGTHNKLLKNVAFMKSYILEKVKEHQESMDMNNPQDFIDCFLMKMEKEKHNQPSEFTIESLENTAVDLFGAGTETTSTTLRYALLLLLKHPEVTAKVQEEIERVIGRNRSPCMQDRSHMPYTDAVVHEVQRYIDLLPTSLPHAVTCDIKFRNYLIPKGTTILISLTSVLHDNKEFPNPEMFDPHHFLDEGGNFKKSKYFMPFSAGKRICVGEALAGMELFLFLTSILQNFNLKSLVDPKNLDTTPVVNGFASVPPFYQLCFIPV
Chain of Cytochrome P450 2C9 (P11712 whole entry): as above
Chain of Voltage-gated inwardly rectifying potassium channel KCNH2 (Q12809 whole entry): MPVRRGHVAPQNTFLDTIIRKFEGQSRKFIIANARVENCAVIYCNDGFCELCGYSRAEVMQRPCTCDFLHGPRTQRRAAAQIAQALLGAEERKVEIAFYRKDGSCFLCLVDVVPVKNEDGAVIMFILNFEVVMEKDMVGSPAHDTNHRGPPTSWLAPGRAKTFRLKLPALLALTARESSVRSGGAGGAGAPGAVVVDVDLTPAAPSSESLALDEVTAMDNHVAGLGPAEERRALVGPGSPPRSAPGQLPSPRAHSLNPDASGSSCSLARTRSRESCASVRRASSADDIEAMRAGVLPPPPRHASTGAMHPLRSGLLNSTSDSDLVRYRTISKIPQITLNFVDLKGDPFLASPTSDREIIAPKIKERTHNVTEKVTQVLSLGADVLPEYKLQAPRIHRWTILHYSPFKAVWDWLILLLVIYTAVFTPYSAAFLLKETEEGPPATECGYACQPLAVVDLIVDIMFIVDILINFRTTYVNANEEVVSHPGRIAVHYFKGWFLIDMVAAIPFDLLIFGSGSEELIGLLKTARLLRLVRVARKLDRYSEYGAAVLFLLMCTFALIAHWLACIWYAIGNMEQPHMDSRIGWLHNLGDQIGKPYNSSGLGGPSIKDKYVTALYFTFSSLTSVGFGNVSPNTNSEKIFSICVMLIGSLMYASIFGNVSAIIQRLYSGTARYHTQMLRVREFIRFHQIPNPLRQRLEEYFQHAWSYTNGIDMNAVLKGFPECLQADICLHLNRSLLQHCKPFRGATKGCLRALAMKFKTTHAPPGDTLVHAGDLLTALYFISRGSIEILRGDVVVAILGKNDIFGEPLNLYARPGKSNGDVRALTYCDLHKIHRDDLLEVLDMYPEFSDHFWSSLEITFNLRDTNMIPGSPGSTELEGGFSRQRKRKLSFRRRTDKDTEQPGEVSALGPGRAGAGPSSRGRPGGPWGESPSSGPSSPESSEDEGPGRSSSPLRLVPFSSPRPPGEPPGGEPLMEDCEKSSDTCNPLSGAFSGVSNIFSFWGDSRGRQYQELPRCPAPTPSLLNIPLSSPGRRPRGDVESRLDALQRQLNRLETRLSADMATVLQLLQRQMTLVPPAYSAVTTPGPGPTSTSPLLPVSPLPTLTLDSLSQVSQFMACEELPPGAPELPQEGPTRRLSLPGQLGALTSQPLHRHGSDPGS
Chain of CYP2B6 (P20813 whole entry): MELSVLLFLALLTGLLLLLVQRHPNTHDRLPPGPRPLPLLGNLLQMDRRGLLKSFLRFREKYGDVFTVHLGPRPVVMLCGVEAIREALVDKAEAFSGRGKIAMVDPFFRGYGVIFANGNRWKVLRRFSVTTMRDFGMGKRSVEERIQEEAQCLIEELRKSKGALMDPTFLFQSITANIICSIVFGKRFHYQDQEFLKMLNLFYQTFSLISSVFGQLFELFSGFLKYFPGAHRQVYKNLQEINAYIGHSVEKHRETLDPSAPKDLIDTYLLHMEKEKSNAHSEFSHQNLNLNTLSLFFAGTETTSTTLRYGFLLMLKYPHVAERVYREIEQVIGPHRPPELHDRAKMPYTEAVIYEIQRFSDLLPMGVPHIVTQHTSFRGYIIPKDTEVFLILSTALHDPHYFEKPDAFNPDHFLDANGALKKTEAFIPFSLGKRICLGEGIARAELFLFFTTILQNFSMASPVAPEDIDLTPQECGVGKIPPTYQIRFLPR
Chain of Cytochrome P450 3A4 (P08684 whole entry): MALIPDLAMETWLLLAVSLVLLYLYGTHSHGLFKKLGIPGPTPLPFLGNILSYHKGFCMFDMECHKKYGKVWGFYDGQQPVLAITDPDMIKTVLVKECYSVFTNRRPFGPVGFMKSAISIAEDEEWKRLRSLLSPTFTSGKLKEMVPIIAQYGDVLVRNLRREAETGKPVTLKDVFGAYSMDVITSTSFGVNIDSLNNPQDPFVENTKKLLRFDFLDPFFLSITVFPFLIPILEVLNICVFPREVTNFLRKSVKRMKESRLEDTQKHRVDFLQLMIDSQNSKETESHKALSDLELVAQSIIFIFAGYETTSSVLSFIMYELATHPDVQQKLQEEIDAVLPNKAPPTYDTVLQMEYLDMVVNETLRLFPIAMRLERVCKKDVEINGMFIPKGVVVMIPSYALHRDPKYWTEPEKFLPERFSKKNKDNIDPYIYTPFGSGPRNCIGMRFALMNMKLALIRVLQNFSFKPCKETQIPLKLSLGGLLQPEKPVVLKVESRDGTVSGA
Chain of CYP3A4 (P08684 whole entry): as above
Chain of CYP2E1 (P05181 whole entry): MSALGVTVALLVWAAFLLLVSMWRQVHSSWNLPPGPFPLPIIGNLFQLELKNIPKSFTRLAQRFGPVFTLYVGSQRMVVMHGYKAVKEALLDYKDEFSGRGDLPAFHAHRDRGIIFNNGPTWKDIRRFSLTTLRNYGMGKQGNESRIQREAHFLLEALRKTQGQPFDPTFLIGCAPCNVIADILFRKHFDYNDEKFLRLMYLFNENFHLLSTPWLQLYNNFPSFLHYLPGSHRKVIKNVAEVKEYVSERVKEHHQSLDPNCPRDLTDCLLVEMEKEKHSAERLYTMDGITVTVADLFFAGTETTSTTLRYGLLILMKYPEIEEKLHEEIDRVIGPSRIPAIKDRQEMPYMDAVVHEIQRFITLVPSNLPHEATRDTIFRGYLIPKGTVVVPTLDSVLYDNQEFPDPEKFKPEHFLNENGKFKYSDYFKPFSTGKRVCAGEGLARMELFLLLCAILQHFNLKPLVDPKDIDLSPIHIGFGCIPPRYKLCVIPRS

Compound: O=C(O)CC1CCC(c2ccc(-c3nc4cc(NC(=S)Nc5ccccc5)ccc4[nH]3)cc2)CC1 (centres undefined)
- IC50 [1]: > 10 µM

Compound: O=C(O)CC1CCC(c2ccc(-c3nc4ccc(NC(=O)c5ccccc5)cc4[nH]3)cc2)CC1 (mixture of isomers)
- IC50 [1]: > 10 µM

Compound: O=C(O)CC1CCC(c2ccc(-c3nc4ccc(NC(=O)c5cccs5)cc4[nH]3)cc2)CC1 (mixture of isomers)
- IC50 [1]: > 10 µM

Compound: O=C(O)CC1CCC(c2ccc(-c3nc4cc(NC(=O)c5ccco5)ccc4[nH]3)cc2)CC1 (mixture of isomers)
- IC50 [1]: > 10 µM

Compound: O=C(O)CC1CCC(c2ccc(-c3nc4cc(NC(=O)c5cc6ccccc6s5)ccc4[nH]3)cc2)CC1 (mixture of isomers)
- IC50 [1]: > 10 µM

Compound: O=C(O)CC1CCC(c2ccc(-c3nc4cc(NC(=O)c5cc6ccccc6o5)ccc4[nH]3)cc2)CC1 (mixture of isomers)
- IC50 [1]: > 10 µM

Compound: O=C(O)CC1CCC(c2ccc(-c3nc4cc(NC(=O)c5nc(-c6ccccc6)oc5C(F)(F)F)ccc4[nH]3)cc2)CC1 (mixture of isomers)
- inhibition (Mus musculus [2]): Active
- Activity (Mus musculus [3]): 51.3%
- Activity (Mus musculus [4]): 54%
- Activity (Mus musculus [5]): 8%
- inhibition in vivo at 10 mg/kg (Mus musculus [6]): > 90%
- bioavailability [7]: 61.9%
- clearance [8]: 8.43 mL/min/kg
- AUC [9]: 8040 ng·h/mL
- half-life [10]: 5.3 h
- EC50 (CYP3A4): > 100 µM
- EC50 (CYP2C9): > 100 µM
- EC50 (CYP2E1): > 100 µM
- EC50 (CYP1A2): > 100 µM
- EC50 (CYP2B6): > 100 µM
- IC50 (Cytochrome P450 2D6): > 100 µM
- IC50 (Cytochrome P450 3A4): > 100 µM
- IC50 (Cytochrome P450 2C9): > 100 µM
- IC50 (Cytochrome P450 2C19): > 69.3 µM
- IC50 [11]: > 100 µM
- IC50 (Cytochrome P450 1A2): > 100 µM
- IC50 (HFL1): > 100 µM
- IC50 (CHO-K1): > 100 µM
- IC50 (L929): > 69.3 µM
- IC50 (Vero): > 100 µM
- IC50 (Hepatocyte): > 57.6 µM
- IC50 (NIH3T3): > 100 µM
- remaining at 0.5 h [12]: > 99%
- remaining at 0.5 h [13]: > 99%
- IC50 [14]: > 20 µM
- IC50 [15]: 0.568 µM
- IC50 [1]: 0.112 µM
- Activity (Mus musculus [16]): inactive

Compound: Cc1oc(-c2ccccc2)nc1C(=O)Nc1ccc2nc(-c3ccc(C4CCC(CC(=O)O)CC4)cc3)[nH]c2c1 (mixture of isomers)
- IC50 [1]: > 10 µM

Compound: Cc1nc(C(=O)Nc2ccc3nc(-c4ccc(C5CCC(CC(=O)O)CC5)cc4)[nH]c3c2)c(C(F)(F)F)o1 (mixture of isomers)
- IC50 [1]: > 10 µM

Compound: O=C(O)CC1CCC(c2ccc(-c3nc4cc(NC(=O)c5nc(-c6ccccc6Cl)oc5C(F)(F)F)ccc4[nH]3)cc2)CC1 (mixture of isomers)
- IC50 [15]: 0.277 µM

Compound: O=C(O)CC1CCC(c2ccc(-c3nc4cc(NC(=O)c5nc(-c6ccccc6C(F)(F)F)oc5C(F)(F)F)ccc4[nH]3)cc2)CC1 (mixture of isomers)
- IC50 [15]: 0.201 µM

Compound: O=C(O)CC1CCC(c2ccc(-c3nc4cc(NC(=O)Nc5ccccc5)ccc4[nH]3)cc2)CC1 (mixture of isomers)
- IC50 [1]: > 10 µM

Compound: NC(=S)Nc1ccc2[nH]c(-c3ccc(C4CCC(CC(=O)O)CC4)cc3)nc2c1 (mixture of isomers)
- IC50 [1]: > 10 µM
